Results published in patent publication US20040063764A1, “Halogen compounds having thrombopoietin receptor agonism” (priority 2001, published 2004).

molecular target: T1, human TPO receptor (Homo sapiens, UniProt P40238); experiment: Thrombopoietic activity: proliferation of TPO dependent BaF/hTPOR cell line (WST-1); type: cell-based; conditions: BaF/hTPOR cells, 20 hours incubation then WST-1 for 4 hours, absorbance at 450 nm; ED50 = half concentration of the concentration showing the maximum thrombopoietic activity
T1 construct: expressed in transfected cells; host or cells: BaF-B03 (murine IL-3 dependent pro-B cell line); the resulting line is BaF/hTPOR
T1 sequence (P40238 26-635): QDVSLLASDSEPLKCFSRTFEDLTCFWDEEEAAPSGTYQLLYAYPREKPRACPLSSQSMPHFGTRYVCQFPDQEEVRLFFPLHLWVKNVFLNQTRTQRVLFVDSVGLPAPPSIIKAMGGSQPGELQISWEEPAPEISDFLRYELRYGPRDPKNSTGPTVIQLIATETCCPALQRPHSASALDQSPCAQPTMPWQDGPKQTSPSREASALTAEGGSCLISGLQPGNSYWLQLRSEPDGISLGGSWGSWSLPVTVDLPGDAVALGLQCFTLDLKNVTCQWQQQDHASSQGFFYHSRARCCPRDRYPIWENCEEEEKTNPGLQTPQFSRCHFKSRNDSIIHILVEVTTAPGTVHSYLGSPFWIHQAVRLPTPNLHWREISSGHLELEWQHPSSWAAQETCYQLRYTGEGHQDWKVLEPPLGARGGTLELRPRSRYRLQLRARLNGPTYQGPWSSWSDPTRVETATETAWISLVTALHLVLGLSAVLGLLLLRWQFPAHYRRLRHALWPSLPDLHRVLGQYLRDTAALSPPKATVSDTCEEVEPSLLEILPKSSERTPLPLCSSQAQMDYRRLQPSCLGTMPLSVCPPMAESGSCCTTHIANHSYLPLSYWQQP
Source text: The TPO dependent BaF/hTPOR cell line which was established by introducing human TPO receptor into BaF-B03 cells according to Collins et al (J. Cell. Physiol., 137:293-298 (1988)) was used to test the thrombopoietic activity of the present compound. The DNA sequences and encoded peptide sequences for human TPO receptor have been described by Vigon et al (Proc. Natl. Acad. Sci. USA, 89:5640-5644 (1992)). TPO dose not have any ability to support proliferation of interlukin-3 dependent parental cell line BaF-B03. BAF/hTPOR cells were maintained in RPMI medium and 10% WEHI-3 conditioned medium. These cells were washed once with PBS and resuspended in RPMI medium without WHEHI-3 conditioned medium and seeded into each well of 96-well microtiter plates at a density of 5×10^4 cells per well in the presence of the present compound or TPO. After incubation at 37° C. for 20 hours in the 5% CO2 incubator, WST-1 reagent (Takara Biomedicals, Japan) was added to each wells and the cells were further incubated for 4 hours. The absorbance at 450 nm was measured. Table 7 exemplifies the ED50 for tested compounds of the present invention, wherein the ED50 is the half concentration of the concentration showing the maximum thrombopoietic activity.

Which EC50 does the source give for `O=C1NC(=S)S/C1=C\c1ccc(C(=O)Nc2nc(-c3cccc(C(F)(F)F)c3F)cs2)cc1` [Compound A-1] here?
The EC50 was 8 nM.

`O=C1NC(=O)/C(=C/c2ccc(C(=O)Nc3nc(-c4cc(F)ccc4F)cs3)cc2)S1` [Compound A-2] was tested. Which EC50 did it give?
The EC50 was 86 nM.

How did the EC50 turn out when `COc1ccc(-c2csc(NC(=O)c3ccc(/C=C4\SC(=O)NC4=O)cc3)n2)c(F)c1` [Compound A-3] was run?
Its EC50 is 75 nM.

How did the EC50 turn out when `O=C1NC(=O)/C(=C/c2ccc(C(=O)Nc3nc(-c4ccc(C(F)(F)F)cc4F)cs3)cc2)S1` [Compound A-4] was run?
Its EC50 is 26 nM.

Which EC50 does the source give for `O=C1NC(=O)/C(=C/c2ccc(C(=O)Nc3nc(-c4cccc(F)c4F)cs3)cc2)S1` [Compound A-5] here?
The EC50 was 25 nM.

With `O=C1NC(=O)/C(=C/c2ccc(C(=O)Nc3nc(-c4ccc(Br)cc4F)cs3)cc2)S1` [Compound A-6] as the molecule, how does the EC50 read?
Its EC50 is 38 nM.

How did the EC50 turn out when `Cc1ccc(-c2csc(NC(=O)c3ccc(/C=C4\SC(=O)NC4=O)cc3)n2)c(F)c1` [Compound A-7] was run?
Its EC50 is 70 nM.

How did the EC50 turn out when `O=C1NC(=O)/C(=C/c2ccc(C(=O)Nc3nc(-c4ccc(-c5ccccc5)cc4F)cs3)cc2)S1` [Compound A-8] was run?
The EC50 was 345 nM.

For `O=C1NC(=O)/C(=C/c2ccc(C(=O)Nc3nc(-c4cc(F)c(F)c(F)c4F)cs3)cc2)S1` [Compound A-10], which EC50 is on record?
Its EC50 is 76 nM.

How did the EC50 turn out when `O=C1NC(=O)/C(=C/c2ccc(C(=O)Nc3nc(-c4cccc(-c5ccccc5)c4F)cs3)cc2)S1` [Compound A-13] was run?
The EC50 was 25 nM.

How did the EC50 turn out when `CCCCc1cccc(-c2csc(NC(=O)c3ccc(/C=C4\SC(=O)NC4=O)cc3)n2)c1F` [Compound A-28] was run?
The EC50 was 10 nM.

With `CCCc1c(Br)ccc(-c2csc(NC(=O)c3ccc(/C=C4\SC(=O)NC4=O)cc3)n2)c1F` [Compound A-29] as the molecule, how does the EC50 read?
Its EC50 is 16 nM.

Which EC50 does the source give for `O=C1NC(=O)/C(=C/c2ccc(C(=O)Nc3nc(-c4cccc(-c5cccnc5)c4F)cs3)cc2)S1` [Compound A-30] here?
Its EC50 is 109 nM.

How did the EC50 turn out when `CCOc1cccc(-c2csc(NC(=O)c3ccc(/C=C4\SC(=O)NC4=O)cc3)n2)c1F` [Compound A-31] was run?
The EC50 was 58 nM.

With `CC(C)(C)CCc1cccc(-c2csc(NC(=O)c3ccc(/C=C4\SC(=O)NC4=O)cc3)n2)c1F` [Compound A-32] as the molecule, how does the EC50 read?
Its EC50 is 9 nM.

With `O=C1NC(=O)/C(=C/c2ccc(C(=O)Nc3nc(-c4cccc(CCc5ccccc5)c4F)cs3)cc2)S1` [Compound A-33] as the molecule, how does the EC50 read?
Its EC50 is 12 nM.

With `O=C1NC(=O)/C(=C/c2ccc(C(=O)Nc3nc(-c4cccc(Cc5ccccc5)c4F)cs3)cc2)S1` [Compound A-34] as the molecule, how does the EC50 read?
Its EC50 is 23 nM.

`CCOCCc1cccc(-c2csc(NC(=O)c3ccc(/C=C4\SC(=O)NC4=O)cc3)n2)c1F` [Compound A-35] was tested. Which EC50 did it give?
Its EC50 is 23 nM.

For `O=C1NC(=O)/C(=C/c2ccc(C(=O)Nc3nc(-c4cccc(C5CCCCC5)c4F)cs3)cc2)S1` [Compound A-37], which EC50 is on record?
The EC50 was 17 nM.

How did the EC50 turn out when `O=C1NC(=O)/C(=C/c2ccc(C(=O)Nc3nc(-c4cccc(C5CCCC5)c4F)cs3)cc2)S1` [Compound A-38] was run?
Its EC50 is 28 nM.

How did the EC50 turn out when `COCCc1cccc(-c2csc(NC(=O)c3ccc(/C=C4\SC(=O)NC4=O)cc3)n2)c1F` [Compound A-42] was run?
The EC50 was 37 nM.

For `COCCOCCc1cccc(-c2csc(NC(=O)c3ccc(/C=C4\SC(=O)NC4=O)cc3)n2)c1F` [Compound A-43], which EC50 is on record?
Its EC50 is 69 nM.

`CCOC(=O)CCCCc1cccc(-c2csc(NC(=O)c3ccc(/C=C4\SC(=O)NC4=O)cc3)n2)c1F` [Compound A-44] was tested. Which EC50 did it give?
The EC50 was 84 nM.

How did the EC50 turn out when `CCOC(=O)CCCCCc1cccc(-c2csc(NC(=O)c3ccc(/C=C4\SC(=O)NC4=O)cc3)n2)c1F` [Compound A-45] was run?
The EC50 was 74 nM.

`O=C1NC(=O)/C(=C/c2ccc(C(=O)Nc3nc(-c4cccc(OC(F)(F)F)c4F)cs3)cc2)S1` [Compound A-46] was tested. Which EC50 did it give?
The EC50 was 13 nM.

How did the EC50 turn out when `COC(c1cccc(-c2csc(NC(=O)c3ccc(/C=C4\SC(=O)NC4=O)cc3)n2)c1F)C(C)C` (stereo not shown) [Compound A-50] was run?
Its EC50 is 28 nM.

With `COC(c1cccc(-c2csc(NC(=O)c3ccc(/C=C4\SC(=O)NC4=O)cc3)n2)c1F)C1CCCCC1` (stereo not shown) [Compound A-51] as the molecule, how does the EC50 read?
The EC50 was 13 nM.

same assay, conditions: Table 7; BaF/hTPOR cells, 20 hours incubation then WST-1 for 4 hours, absorbance at 450 nm; ED50 = half concentration of the concentration showing the maximum thrombopoietic activity

Which EC50 does the source give for `O=C1NC(=O)C(=Cc2ccc(C(=O)Nc3nc(-c4cccc(Br)c4F)cs3)cc2)S1` [Compound A-14] here?
The EC50 was 26 nM.

For `COc1cccc(-c2csc(NC(=O)c3ccc(C=C4SC(=O)NC4=O)cc3)n2)c1F` [Compound A-15], which EC50 is on record?
The EC50 was 73 nM.

How did the EC50 turn out when `Cc1cccc(-c2csc(NC(=O)c3ccc(C=C4SC(=O)NC4=O)cc3)n2)c1F` [Compound A-16] was run?
Its EC50 is 25 nM.

Which EC50 does the source give for `CCCCCc1cccc(-c2csc(NC(=O)c3ccc(C=C4SC(=O)NC4=O)cc3)n2)c1F` [Compound A-17] here?
Its EC50 is 13 nM.

With `O=C1NC(=O)C(=Cc2ccc(C(=O)Nc3nc(-c4ccc(F)c(Br)c4F)cs3)cc2)S1` [Compound A-18] as the molecule, how does the EC50 read?
Its EC50 is 83 nM.

With `O=C1NC(=O)C(=Cc2ccc(C(=O)Nc3nc(-c4ccc(F)c(-c5ccccc5)c4F)cs3)cc2)S1` [Compound A-19] as the molecule, how does the EC50 read?
The EC50 was 69 nM.

`O=C1NC(=O)C(=Cc2ccc(C(=O)Nc3nc(-c4cccc(-c5ccc(F)cc5)c4F)cs3)cc2)S1` [Compound A-20] was tested. Which EC50 did it give?
The EC50 was 28 nM.

With `O=C1NC(=O)C(=Cc2ccc(C(=O)Nc3nc(-c4ccc(C(F)(F)F)c(Br)c4F)cs3)cc2)S1` [Compound A-21] as the molecule, how does the EC50 read?
Its EC50 is 355 nM.

`CCCCCCc1cccc(-c2csc(NC(=O)c3ccc(C=C4SC(=O)NC4=O)cc3)n2)c1F` [Compound A-22] was tested. Which EC50 did it give?
Its EC50 is 7 nM.

Which EC50 does the source give for `CCCCCc1c(F)ccc(-c2csc(NC(=O)c3ccc(C=C4SC(=O)NC4=O)cc3)n2)c1F` [Compound A-23] here?
Its EC50 is 75 nM.

For `CCCCOc1cccc(-c2csc(NC(=O)c3ccc(C=C4SC(=O)NC4=O)cc3)n2)c1F` [Compound A-24], which EC50 is on record?
The EC50 was 49 nM.

Which EC50 does the source give for `CCc1cccc(-c2csc(NC(=O)c3ccc(C=C4SC(=O)NC4=O)cc3)n2)c1F` [Compound A-25] here?
Its EC50 is 18 nM.

How did the EC50 turn out when `CC(C)CCCCc1cccc(-c2csc(NC(=O)c3ccc(C=C4SC(=O)NC4=O)cc3)n2)c1F` [Compound A-26] was run?
The EC50 was 7 nM.
